Results taken from patent US10660877B2 (BRISTOL-MYERS SQUIBB COMPANY, priority 2016, dated 2020).
Read-outs that look alike come from different tables or passages of the source.

Tests used:
human TLR8 = human TLR8 (Homo sapiens (Human), UniProt Q9NR97); experiment: TLR8 inhibition reporter assay (HEK-Blue cells, SEAP reporter, R848 stimulation);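 note: compounds tested from 0.05 nM to 50 µM, 22 h at 37 °C, SEAP measured with HEK-Blue Detection, inhibition relative to agonist plus DMSO versus a known inhibitor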
human TLR9 = human TLR9 (Homo sapiens (Human), UniProt Q9NR96); experiment: TLR9 inhibition reporter assay (HEK-Blue cells, SEAP reporter, ODN2006 stimulation);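 note: compounds tested over 0.05 nM to 50 µM, 22 h incubation, inhibition taken as SEAP signal drop from agonist plus DMSO wells toward a known inhibitor control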
human TLR7 = human TLR7 (Homo sapiens (Human), UniProt Q9NYK1); experiment: TLR7 inhibition reporter assay (HEK-Blue cells, SEAP reporter, gardiquimod stimulation); type: cell-based
[1] = read-out: TLR8 IC50, HEK-Blue cells overexpressing human TLR8, R848 15.9 μM
[2] = read-out: TLR9 IC50, HEK-Blue cells overexpressing human TLR9, ODN2006 5 nM
[3] = HEK-Blue cells overexpressing human TLR7, gardiquimod 7.5 μM
[4] = TLR8 IC50, HEK-Blue cells overexpressing human TLR8, R848 15.9 μM
[5] = TLR9 IC50, HEK-Blue cells overexpressing human TLR9, ODN2006 5 nM
[6] = read-out: TLR8 IC50, HEK-Blue cells, R848 15.9 μM
[7] = read-out: TLR9 IC50, HEK-Blue cells, ODN2006 5 nM
[8] = HEK-Blue cells, gardiquimod 7.5 μM

Chain of human TLR9 (Q9NR96 26-1032): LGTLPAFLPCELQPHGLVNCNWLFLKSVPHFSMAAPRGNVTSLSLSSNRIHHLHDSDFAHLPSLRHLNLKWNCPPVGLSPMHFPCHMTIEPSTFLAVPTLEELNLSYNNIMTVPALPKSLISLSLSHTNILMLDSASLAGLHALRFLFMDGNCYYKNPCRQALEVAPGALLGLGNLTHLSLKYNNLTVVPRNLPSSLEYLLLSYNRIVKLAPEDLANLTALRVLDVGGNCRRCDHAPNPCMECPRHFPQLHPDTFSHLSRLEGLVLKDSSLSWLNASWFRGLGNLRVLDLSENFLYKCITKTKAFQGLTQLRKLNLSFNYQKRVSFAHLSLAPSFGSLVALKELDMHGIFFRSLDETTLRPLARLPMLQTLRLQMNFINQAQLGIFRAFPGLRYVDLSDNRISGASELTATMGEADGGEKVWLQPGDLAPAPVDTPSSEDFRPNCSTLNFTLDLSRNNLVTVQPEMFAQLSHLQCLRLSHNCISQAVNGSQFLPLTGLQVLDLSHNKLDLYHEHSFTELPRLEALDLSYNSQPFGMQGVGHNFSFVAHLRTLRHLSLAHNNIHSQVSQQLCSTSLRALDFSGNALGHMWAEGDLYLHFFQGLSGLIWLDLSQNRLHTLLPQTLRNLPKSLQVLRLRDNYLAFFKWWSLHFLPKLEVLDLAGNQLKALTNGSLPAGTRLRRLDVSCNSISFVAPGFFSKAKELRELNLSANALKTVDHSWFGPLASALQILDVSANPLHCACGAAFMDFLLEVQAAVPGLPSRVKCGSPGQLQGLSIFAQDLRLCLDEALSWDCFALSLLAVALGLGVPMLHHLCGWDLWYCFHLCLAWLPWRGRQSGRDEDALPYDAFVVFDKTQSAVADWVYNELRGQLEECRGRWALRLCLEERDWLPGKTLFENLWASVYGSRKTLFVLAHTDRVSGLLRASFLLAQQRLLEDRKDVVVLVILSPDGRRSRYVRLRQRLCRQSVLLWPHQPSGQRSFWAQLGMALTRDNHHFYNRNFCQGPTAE
Chain of human TLR7 (Q9NYK1 27-1049): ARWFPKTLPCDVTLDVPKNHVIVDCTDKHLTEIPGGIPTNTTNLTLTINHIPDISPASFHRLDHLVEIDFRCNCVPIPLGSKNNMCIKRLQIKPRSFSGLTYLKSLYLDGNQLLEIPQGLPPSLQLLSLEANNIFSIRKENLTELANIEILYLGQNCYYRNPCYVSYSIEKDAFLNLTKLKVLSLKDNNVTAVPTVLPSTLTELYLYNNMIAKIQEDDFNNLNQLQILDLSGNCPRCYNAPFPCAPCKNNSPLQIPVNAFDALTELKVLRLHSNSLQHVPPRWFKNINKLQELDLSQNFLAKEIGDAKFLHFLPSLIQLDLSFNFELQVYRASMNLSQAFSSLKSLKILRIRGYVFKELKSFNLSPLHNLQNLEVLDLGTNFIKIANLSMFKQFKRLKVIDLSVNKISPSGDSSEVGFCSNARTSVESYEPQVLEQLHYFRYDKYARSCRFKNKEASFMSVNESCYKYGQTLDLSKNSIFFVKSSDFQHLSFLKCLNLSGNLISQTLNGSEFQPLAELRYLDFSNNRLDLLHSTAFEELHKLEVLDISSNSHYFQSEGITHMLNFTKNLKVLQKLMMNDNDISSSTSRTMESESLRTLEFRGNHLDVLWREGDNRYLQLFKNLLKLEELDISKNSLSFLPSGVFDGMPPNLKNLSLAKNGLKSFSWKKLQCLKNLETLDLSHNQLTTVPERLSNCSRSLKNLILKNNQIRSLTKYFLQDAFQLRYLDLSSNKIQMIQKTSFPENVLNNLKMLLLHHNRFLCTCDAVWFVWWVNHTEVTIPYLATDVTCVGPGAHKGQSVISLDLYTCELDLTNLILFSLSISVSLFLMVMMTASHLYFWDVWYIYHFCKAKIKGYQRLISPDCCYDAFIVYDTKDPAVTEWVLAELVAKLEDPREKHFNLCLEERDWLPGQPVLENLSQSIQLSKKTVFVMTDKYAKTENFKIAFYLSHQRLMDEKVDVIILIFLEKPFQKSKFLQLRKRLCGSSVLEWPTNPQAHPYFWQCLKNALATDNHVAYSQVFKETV
Chain of human TLR8 (Q9NR97 27-1041): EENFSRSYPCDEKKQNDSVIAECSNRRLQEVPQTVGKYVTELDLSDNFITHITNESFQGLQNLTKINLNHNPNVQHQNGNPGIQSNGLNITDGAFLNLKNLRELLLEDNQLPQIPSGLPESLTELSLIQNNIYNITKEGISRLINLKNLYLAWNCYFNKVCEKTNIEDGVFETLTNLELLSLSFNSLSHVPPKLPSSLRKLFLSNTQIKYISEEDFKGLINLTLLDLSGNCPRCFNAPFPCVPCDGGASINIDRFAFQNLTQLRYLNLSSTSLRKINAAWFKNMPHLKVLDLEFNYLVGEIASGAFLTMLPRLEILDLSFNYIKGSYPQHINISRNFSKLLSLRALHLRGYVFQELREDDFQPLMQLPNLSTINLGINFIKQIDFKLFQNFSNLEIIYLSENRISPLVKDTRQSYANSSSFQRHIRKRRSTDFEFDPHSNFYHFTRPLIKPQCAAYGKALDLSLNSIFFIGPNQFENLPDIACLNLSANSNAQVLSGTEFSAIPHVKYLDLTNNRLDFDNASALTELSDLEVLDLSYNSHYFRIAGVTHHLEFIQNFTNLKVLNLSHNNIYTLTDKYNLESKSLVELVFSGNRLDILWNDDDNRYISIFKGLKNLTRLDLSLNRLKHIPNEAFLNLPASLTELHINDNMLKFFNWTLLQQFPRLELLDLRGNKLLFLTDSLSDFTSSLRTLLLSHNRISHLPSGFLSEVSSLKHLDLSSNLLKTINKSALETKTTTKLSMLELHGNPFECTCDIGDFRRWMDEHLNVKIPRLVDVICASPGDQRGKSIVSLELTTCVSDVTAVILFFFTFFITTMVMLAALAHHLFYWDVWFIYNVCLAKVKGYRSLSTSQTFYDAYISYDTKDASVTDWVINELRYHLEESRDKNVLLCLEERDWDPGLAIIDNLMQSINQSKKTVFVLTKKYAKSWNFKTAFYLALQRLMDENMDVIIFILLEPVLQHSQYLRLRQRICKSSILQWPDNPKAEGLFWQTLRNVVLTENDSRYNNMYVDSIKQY

SMILES | IC50 (human TLR8; [1]) | IC50 (human TLR9; [2]) | IC50 (human TLR7; [3]) | IC50 (human TLR8; [4]) | IC50 (human TLR9; [5]) | IC50 (human TLR8; [6]) | IC50 (human TLR9; [7]) | IC50 (human TLR7; [8])
Cc1cc(-c2[nH]c3ccc(C4CCN(C(=O)CN(C)CC#N)CC4)cc3c2C(C)C)cc(C)n1 [Example 423, 2-((2-(4-(2-(2,6-dimethylpyridin-4-yl)-3-isopropyl-1H-indol-5-yl)piperidin-1-yl)-2-oxoethyl)(methyl)amino)acetonitrile] | 20.8 nM | 1330 nM | 2.8 nM | – | – | – | – | –
Cc1cc(-c2[nH]c3ccc(C4CCN(CC(=O)NCC(C)O)CC4)cc3c2C(C)C)cc(C)n1 (stereo not drawn) [Example 260, 2-(4-(2-(2,6-dimethylpyridin-4-yl)-3-isopropyl-1H-indol-5-yl)piperidin-1-yl)-N-(2-hydroxypropyl) acetamide] | 5.1 nM | 379 nM | 1.5 nM | – | – | – | – | –
Cc1cc(-c2[nH]c3ccc(C4CCN(C(=O)c5cn(C)nc5C)CC4)cc3c2C(C)C)cc(C)n1 [Example 141, (1,3-dimethyl-1H-pyrazol-4-yl)(4-(2-(2,6-dimethylpyridin-4-yl)-3-isopropyl-1H-indol-5-yl)piperidin-1-yl)methanone] | 60.5 nM | 40000 nM | 4.8 nM | – | – | – | – | –
Cc1cc(-c2[nH]c3ccc(C4CCN(C(=O)C5CCN(C)C(=O)C5)CC4)cc3c2C(C)C)ccn1 (stereo not drawn) [Example 607, 4-(4-(3-isopropyl-2-(2-methylpyridin-4-yl)-1H-indol-5-yl)piperidine-1-carbonyl)-1-methylpiperidin-2-one] | 186 nM | > 50000 nM | 94 nM | – | – | – | – | –
CCc1c(-c2ccnc(OC)c2)[nH]c2ccc(C3CCN(C4CCN(C(C)C)CC4)CC3)cc12 [Example 786, 3-ethyl-5-(1′-isopropyl-[1,4′-bipiperidin]-4-yl)-2-(2-methoxypyridin-4-yl)-1H-indole] | 50.4 nM | 206 nM | 309 nM | – | – | – | – | –
CCc1c(-c2ccnc(C)c2)[nH]c2ccc(C3CCN(C[C@@H]4CCCN4C(C)C)CC3)cc12 [Example 741, (S)-3-ethyl-5-(1-((1-isopropylpyrrolidin-2-yl)methyl)piperidin-4-yl)-2-(2-methylpyridin-4-yl)-1H-indole] | 32.7 nM | 213 nM | 172 nM | – | – | – | – | –
Cc1cc(-c2[nH]c3ccc(C4CCN(Cc5cn[nH]c5)CC4)cc3c2C(C)C)cc(C)n1 [Example 438, 5-(1-((1H-pyrazol-4-yl)methyl)piperidin-4-yl)-2-(2,6-dimethylpyridin-4-yl)-3-isopropyl-1H-indole] | 3.1 nM | 69 nM | 1.2 nM | – | – | – | – | –
Cc1cc(-c2[nH]c3ccc(C4CCN(C(=O)Cn5ccnn5)CC4)cc3c2C(C)C)cc(C)n1 [Example 158, 1-(4-(2-(2,6-dimethylpyridin-4-yl)-3-isopropyl-1H-indol-5-yl)piperidin-1-yl)-2-(1H-1,2,3-triazol-1-yl)ethan-1-one] | 85.4 nM | 5720 nM | 6 nM | – | – | – | – | –
Cc1cc(-c2[nH]c3ccc(C4CCN(C(=O)c5cccn(C6CC6)c5=O)CC4)cc3c2C(C)C)cc(C)n1 [Example 123, 1-cyclopropyl-3-(4-(2-(2,6-dimethylpyridin-4-yl)-3-isopropyl-1H-indol-5-yl)piperidine-1-carbonyl)pyridin-2(1H)-one] | 114 nM | 36600 nM | 20.5 nM | – | – | – | – | –
Cc1cc(-c2[nH]c3ccc(C4CCN(C(=O)C5CCOCC5)CC4)cc3c2C(C)C)ccn1 [Example 597, (4-(3-isopropyl-2-(2-methylpyridin-4-yl)-1H-indol-5-yl)piperidin-1-yl)(tetrahydro-2H-pyran-4-yl)methanone] | 117 nM | 26900 nM | 45.6 nM | – | – | – | – | –
CCCCN(CCO)C(=O)CN1CCC(c2ccc3[nH]c(-c4cc(C)nc(C)c4)c(C(C)C)c3c2)CC1 [Example 298, N-butyl-2-(4-(2-(2,6-dimethylpyridin-4-yl)-3-isopropyl-1H-indol-5-yl)piperidin-1-yl)-N-(2-hydroxyethyl)acetamide] | 100 nM | 2670 nM | 25.6 nM | – | – | – | – | –
CNCC(=O)N1CCC(c2ccc3[nH]c(-c4cc(C)ncc4F)c(C(C)C)c3c2)CC1 [Example 621, 1-(4-(2-(5-fluoro-2-methylpyridin-4-yl)-3-isopropyl-1H-indol-5-yl)piperidin-1-yl)-2-(methylamino)ethan-1-one] | 5 nM | 1590 nM | 2.4 nM | – | – | – | – | –
CCc1c(-c2ccnc(C)c2)[nH]c2ccc(C3CCN(C(=O)[C@@H]4CCCCN4)CC3)cc12 [Example 628, (S)-(4-(3-ethyl-2-(2-methylpyridin-4-yl)-1H-indol-5-yl)piperidin-1-yl)(piperidin-2-yl)methanone] | – | – | 39.2 nM | 18.3 nM | 363 nM | – | – | –
Cc1cc(-c2[nH]c3ccc(C4CCN(C(=O)C5CCNCC5)CC4)cc3c2C(C)C)ccn1 [Example 573, (4-(3-isopropyl-2-(2-methylpyridin-4-yl)-1H-indol-5-yl)piperidin-1-yl)(piperidin-4-yl)methanone] | 33.9 nM | 379 nM | 12.9 nM | – | – | – | – | –
CCc1c(-c2ccnc(C)c2C)[nH]c2ccc(C3CCNCC3)cc12 [Example 70, 2-(2,3-dimethylpyridin-4-yl)-3-ethyl-5-(piperidin-4-yl)-1H-indole] | 47.2 nM | 1110 nM | 120 nM | – | – | – | – | –
Cc1cc(-c2[nH]c3ccc(C4CCN(CC(=O)NC56CC7CC(CC(C7)C5)C6)CC4)cc3c2C(C)C)cc(C)n1 [Example 224, N-(adamantan-1-yl)-2-(4-(2-(2,6-dimethylpyridin-4-yl)-3-isopropyl-1H-indol-5-yl)piperidin-1-yl)acetamide] | 820 nM | 4130 nM | 286 nM | – | – | – | – | –
CCc1c(-c2ccnc(OC)c2)[nH]c2ccc(C3CCN(CCNC)CC3)cc12 [Example 778, 2-(4-(3-ethyl-2-(2-methoxypyridin-4-yl)-1H-indol-5-yl)piperidin-1-yl)-N-methylethan-1-amine] | 100 nM | 1940 nM | 330 nM | – | – | – | – | –
Cc1cc(-c2[nH]c3ccc(C4CCNCC4(F)F)cc3c2C(C)C)cc(C)n1 (single isomer, unassigned) [Example 489B, 5-(3,3-difluoropiperidin-4-yl)-2-(2,6-dimethylpyridin-4-yl)-3-isopropyl-1H-indole] | – | – | 1.3 nM | 20 nM | 1010 nM | – | – | –
Cc1cc(-c2[nH]c3ccc(C4CCN(CC(O)C(C)C)CC4)cc3c2C(C)C)cc(C)n1 (stereo not drawn) [Example 849, 1-(4-(2-(2,6-dimethylpyridin-4-yl)-3-isopropyl-1H-indol-5-yl)piperidin-1-yl)-3-methylbutan-2-ol] | – | – | – | – | – | 2.3 nM | 291 nM | 1.4 nM
CNCCN1CCC(c2ccc3[nH]c(-c4ccnc(Cl)c4)c(C)c3c2)CC1 [Example 751, 2-(4-(2-(2-chloropyridin-4-yl)-3-methyl-1H-indol-5-yl)piperidin-1-yl)-N-methylethan-1-amine] | 55.6 nM | 324 nM | 472 nM | – | – | – | – | –
Cc1nccc(-c2[nH]c3ccc(C4CCN(C)CC4)cc3c2C(C)C)c1C [Example 637, 2-(2,3-dimethylpyridin-4-yl)-3-isopropyl-5-(1-methylpiperidin-4-yl)-1H-indole] | 42.1 nM | 1540 nM | 36.4 nM | – | – | – | – | –
Cc1nc[nH]c1CN1CCC(c2ccc3[nH]c(-c4ccnc(N)c4)c(C(C)C)c3c2)CC1 [Example 816, 4-(3-isopropyl-5-(1-((4-methyl-1H-imidazol-5-yl)methyl)piperidin-4-yl)-1H-indol-2-yl)pyridin-2-amine] | – | – | – | – | – | 47.3 nM | 86 nM | 215 nM
Cc1cc(-c2[nH]c3ccc(C4CCN(CC(C)(C)O)CC4)cc3c2C2CC2)cc(C)n1 [Example 668, 1-(4-(3-cyclopropyl-2-(2,6-dimethylpyridin-4-yl)-1H-indol-5-yl)piperidin-1-yl)-2-methylpropan-2-ol] | 7.6 nM | 149 nM | 14.3 nM | – | – | – | – | –
Cc1cc(-c2[nH]c3ccc(C4CCN(CC(=O)NC5CCC5)CC4)cc3c2C(C)C)cc(C)n1 [Example 213, N-cyclobutyl-2-(4-(2-(2,6-dimethylpyridin-4-yl)-3-isopropyl-1H-indol-5-yl)piperidin-1-yl) acetamide] | 13.8 nM | 331 nM | 7.1 nM | – | – | – | – | –
Cc1cc(-c2[nH]c3ccc(C4CCN(C(=O)CN5C[C@@H](F)C[C@H]5CO)CC4)cc3c2C(C)C)cc(C)n1 [Example 409, 1-(4-(2-(2,6-dimethylpyridin-4-yl)-3-isopropyl-1H-indol-5-yl)piperidin-1-yl)-2-((2S,4S)-4-fluoro-2-(hydroxymethyl)pyrrolidin-1-yl)ethan-1-one] | 67.9 nM | 2530 nM | 4.1 nM | – | – | – | – | –
Cc1cc(-c2[nH]c3ccc(C4CCN(C(=O)Cn5cnnn5)CC4)cc3c2C(C)C)cc(C)n1 [Example 165, 1-(4-(2-(2,6-dimethylpyridin-4-yl)-3-isopropyl-1H-indol-5-yl)piperidin-1-yl)-2-(1H-tetrazol-1-yl)ethan-1-one] | 66.1 nM | 17200 nM | 13.3 nM | – | – | – | – | –
CCN1CCC(N2CCC(c3ccc4[nH]c(-c5ccnc(OC)c5)c(C(C)C)c4c3)CC2)CC1 [Example 801, 5-(1′-ethyl-[1,4′-bipiperidin]-4-yl)-3-isopropyl-2-(2-methoxypyridin-4-yl)-1H-indole] | 218 nM | 740 nM | 561 nM | – | – | – | – | –
Cc1cc(-c2[nH]c3ccc(C4CCN(Cc5cncs5)CC4)cc3c2C(C)C)c(C)cn1 [Example 687, 5-((4-(2-(2,5-dimethylpyridin-4-yl)-3-isopropyl-1H-indol-5-yl)piperidin-1-yl)methyl)thiazole] | 1.8 nM | 4920 nM | 25.6 nM | – | – | – | – | –
